Results: patent US20100184638A1, “Galanin Receptors and Brain Injury” (NeuroTargets, Ltd., priority 2004, published 2010)
Non-standard residues stand in square brackets, D forms with d. Residues, ends and D or L forms follow the SMILES beside them. *: point of attachment. Fmoc = O=C(OCC1c2ccccc2-c2ccccc21)*; Cha = N[C@@H](CC1CCCCC1)C(=O)O; AMC = Cc1cc(=O)oc2cc(N*)ccc12

Tests used:
GALR1 and GALR2 = settings: cited from earlier work
[1] = test system: organotypic hippocampal cultures; assay: Staurosporine-induced cell death in organotypic hippocampal cultures (propidium iodide); type: cell-based, mouse; settings: for percentage cell death: n=4
Description: Organotypic cultures were prepared as previously described (Elliott-Hunt et al. (2002) J. Neurochem. 80 416-425; Stoppini et al. (1991) J. Neurosci. Methods 37 173-182). Briefly, the hippocampi from 5-6 day old pups were rapidly removed under a dissection microscope and sectioned transversely at 400 μm using a McIlwain tissue chopper (Mickle Laboratory Engineering Co. Ltd., Gomshall, UK). The slices were cultured in 95% air and 5% CO2 at 37° C. on a microporous transmembrane biopore membrane (Millipore, Poole, UK), in a 6-well plate, in 50% minimal essential medium with Earle's Salts (Gibco BRL, Paisley, UK) without L-glutamine, […] Hanks Balanced Salt Solution (Gibco BRL), 25% Horse Serum (heat inactivated; Harlan Serum Labs, Loughborough, UK), 5 mg/ml glucose (Sigma Chemical Co., Poole, UK) and […] glutamine (Sigma).
Fourteen day organotypic hippocampal cultures were placed in 0.1% BSA with serum free media for 16 hours before incubation with varying concentrations of glutamic acid for 3 hours or staurosporine for 9 hours. Staurosporine and glutamate are both known to cause excitotoxic damage to such cell cultures (Prehn et al. (1997) J. Neurochem. 68 1679-1685; Ohmori et al. (1996) Brain Res. 743 109-115). Cultures were washed with serum-free medium and incubated for a further 24 hours before imaging. Regional patterns of neuronal injury in the organotypic cultures were observed by performing experiments in the presence of propidium iodide. After membrane injury, the dye enters cells, binds to nucleic acids and accumulates, rendering the cell brightly fluorescent (Vornov et al. (1994) Stroke 25 457-465). […] Neuronal damage in the area encompassing the CA1 region was assessed using the density slice function in NIH Image software (Scion Image, MD, USA) to establish signal above background. The area of the subfields expressing the exclusion dye propidium iodide was measured, and expressed as a percentage of the total area of the subfields as assessed in the bright field image. Furthermore, for consistency in setting the parameters accurately when using the density slice function, the threshold was set against a positive control set of cultures exposed to 10 mM glutamate.
(SEQ ID NO: 1) (AstraZeneca, Montreal, Quebec, Canada), amyloid-β (1-42) (Aβ (1-42)) and the reverse Aβ (42-1) peptide (American Peptide Company, Sunnyvale, Calif. 93906). Before use in the experiments below, the Aβ (1-42) was induced to form fibrils by pre-incubation in culture medium. Specifically, 0.45 mg of Aβ peptide was dissolved in 20 μl of dimethyl sulfoxide (DMSO-Sigma) and diluted to a 100-μM stock solution in medium, which was then incubated with gentle shaking at room temperature for 24 hours.
To further dissect the neuroprotective role played by galanin in a more tractable in vitro system, both primary dispersed and organotypic hippocampal cultures (Elliott-Hunt, 2002) were used. These two techniques are complimentary since the dispersed hippocampal cultures ensure that observed effects are neuron-specific, whilst the organotypic cultures preserve the synaptic and anatomical organisation of the neuronal circuitry (Elliott-Hunt, 2002) as well as retaining many of the functional characteristics found in vivo (Adamschik et al. (2000) Brain Res. Prot. 5 153-158). The effects of staurosporine and glutamate on neuronal cell death in hippocampal cultures (Prehn, 1997; Ohmori, 1996) were studied. Cell death was visualised by propidium iodide staining. Results are expressed as a percentage of the area expressing fluorescence as compared with the untreated “control” cultures.

[2] = test system: organotypic hippocampal cultures; assay: Glutamate-induced cell death in organotypic hippocampal cultures (propidium iodide); type: cell-based, mouse; settings: 4 mM glutamate, 9 hour exposure, n=4
Description: Organotypic cultures were prepared as previously described (Elliott-Hunt et al. (2002) J. Neurochem. 80 416-425; Stoppini et al. (1991) J. Neurosci. Methods 37 173-182). Briefly, the hippocampi from 5-6 day old pups were rapidly removed under a dissection microscope and sectioned transversely at 400 μm using a McIlwain tissue chopper (Mickle Laboratory Engineering Co. Ltd., Gomshall, UK). […]
Staurosporine and glutamate are both known to cause excitotoxic damage to such cell cultures (Prehn et al. (1997) J. Neurochem. 68 1679-1685; Ohmori et al. (1996) Brain Res. 743 109-115). […] Neuronal damage in the area encompassing the CA1 region was assessed using the density slice function in NIH Image software (Scion Image, MD, USA) to establish signal above background. The area of the subfields expressing the exclusion dye propidium iodide was measured, and expressed as a percentage of the total area of the subfields as assessed in the bright field image. […]
To further dissect the neuroprotective role played by galanin in a more tractable in vitro system, both primary dispersed and organotypic hippocampal cultures (Elliott-Hunt, 2002) were used. […] Results are expressed as a percentage of the area expressing fluorescence as compared with the untreated “control” cultures.

GALR2 = settings: cited from earlier work

Question: What does the source list for `Cc1cc(=O)oc2cc(NC(=O)[C@H](CCCCN)NC(=O)[C@H](CC3CCCCC3)NC(=O)OCC3c4ccccc4-c4ccccc43)ccc12` [Galnon] (Fmoc-[Cha]-Lys-{AMC})?
Answer: activation of other GPCR receptors including the neurotensin receptor (GALR1 and GALR2): also activates a number of other GPCR receptors; agonistic activity at GALR1 and GALR2 (GALR1 and GALR2): equally activates and has agonistic activity to both GALR1 and GALR2

Question: Which results are given for `CN[C@@H]1C[C@H]2O[C@@](C)([C@@H]1OC)n1c3ccccc3c3c4c(c5c6ccccc6n2c5c31)C(=O)NC4` [Staurosporine, staurosporine]?
Answer: percentage cell death ([1]; 100 nM staurosporine, galanin knockout organotypic cultures): 65±10%; percentage cell death ([1]; 100 nM staurosporine, wild-type organotypic cultures): 40±26%; percentage cell death ([1]; 1 μM staurosporine, galanin knockout organotypic cultures): 68±0.5%; percentage cell death ([1]; 1 μM staurosporine, wild-type organotypic cultures): 38±8%

Question: Which percentage cell death ([2]; galanin knockout organotypic cultures) does the source give for `N[C@@H](CCC(=O)O)C(=O)O` [glutamate, L-glutamic acid] here?
Answer: Its percentage cell death is 85±8.6%.

Question: And the percentage cell death ([2]; wild-type organotypic cultures)?
Answer: The percentage cell death was 61±9.3%.

Question: With WTLNSAGYLL [AR-M1896] as the compound, how does the cell death ([1]; 100 nM AR-M1896 co-administered with 100 nM staurosporine, wild-type organotypic cultures, p<0.05) read?
Answer: The cell death was “significantly reduced the amount of cell death”.

Question: What about the “reduction of staurosporine-induced cell death” value ([1]; galanin knockout organotypic cultures versus wild-type cultures (data not shown)) of the same compound?
Answer: The value was “as effective”.

Question: And the “effect in the absence of staurosporine” value ([1]; organotypic or primary cultures, no staurosporine)?
Answer: The value was “No significant effects”.

Question: What about the “binding specificity for GALR2 compared to GALR1” value (GALR2) of the same compound?
Answer: The value was 500 fold.
